# According to patent US12617773B2, “Azetidin-3-ylmethanol derivatives as CCR6 receptor modulators” (Idorsia Pharmaceuticals Ltd, priority 2020, dated 2026):
# Biological target: T1, human CCR6 (Homo sapiens, UniProt P51684)
# T1 construct: expressed in transfected cells; host or cells: HEK-293
# T1 sequence (P51684 1-374): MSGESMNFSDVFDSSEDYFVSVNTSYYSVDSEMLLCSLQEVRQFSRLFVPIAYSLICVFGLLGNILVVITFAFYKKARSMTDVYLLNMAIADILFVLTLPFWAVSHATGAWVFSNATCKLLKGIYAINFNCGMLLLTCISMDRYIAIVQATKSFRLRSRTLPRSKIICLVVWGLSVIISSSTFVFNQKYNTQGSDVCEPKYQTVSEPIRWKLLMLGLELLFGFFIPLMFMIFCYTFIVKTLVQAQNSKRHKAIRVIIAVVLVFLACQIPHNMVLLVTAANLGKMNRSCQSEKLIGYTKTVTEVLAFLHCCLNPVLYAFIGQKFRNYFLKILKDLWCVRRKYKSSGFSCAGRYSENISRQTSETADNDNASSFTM
# Test: FLIPR assay (inhibition of CCL20-induced calcium signal)
# Format: cell-based
# Settings: HEK-293 cells expressing human CCR6; mean values where determined several times; read-out: FLIPR IC50
# Outline: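 IC50 values come from baseline-corrected peak calcium fluorescence after agonist. The agonist was CCL20 at 10 nM final, added to engineered human CCR6 HEK-293 cells following a 30-min, room-temperature, dark preincubation with serially diluted compound. Readings were taken in a fluorometric imaging plate reader.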
row,Structure (SMILES),IC50 [nM]
1,"CN1CC(C)(C(O)(c2ccc(OC(F)(F)F)cc2)c2ccc(OCC3COC3)nc2)C1 (stereo not drawn) [Example 269, (1,3-Dimethyl-azetidin-3-yl)-[6-(oxetan-3-ylmethoxy)-pyridin-3-yl]-(4-trifluoromethoxy-phenyl)-methanol]",224
2,"COc1nc(C)cc(C(C)(O)C#Cc2cncc([C@@](O)(c3ccc(C(C)C)cc3)C3(C)CN(C)C3)c2)n1 (single isomer, unassigned) [Example 629]",60.9
3,CC(C)c1ccc([C@](O)(c2cncc(N3CC(C)(C)OC3=O)c2)C2(C)CN(C)C2)cc1 [Example 200],407
4,CC(=O)N1CCC(c2nc(-c3cncc([C@@](O)(c4ccc(Br)cc4)C4(C)CN(C)C4)c3)no2)CC1 [Example 546],776
5,CCC(O)(C#Cc1cncc([C@@](O)(c2ccc(C(C)C)cc2)C2(C)CN(C)C2)c1)c1cc(C)ncn1 (stereo partly drawn) [Example 398],51.8
6,CC(C)c1ccc([C@](O)(c2cncc(C#CC3(O)CCC3)c2)C2(C)CN(C)C2)cc1 [Example 21],47.9
7,CC(C)c1ccc([C@](O)(c2cncc(N3CC4(CCCC4)CC3=O)c2)C2(C)CN(C)C2)cc1 [Example 211],50.1
8,CC(C)c1ccc([C@](O)(c2cncc(N3CC4(CCCC4)OC3=O)c2)C2(C)CN(C)C2)cc1 [Example 198],70.8
9,CC(C)c1ccc([C@](O)(c2cncc(-c3noc([C@@H]4CCCC(=O)N4)n3)c2)C2(C)CN(C)C2)cc1 [Example 361],164

# The remaining compounds from weak to strong by IC50, led by results:
row,IC50 [nM],Structure (SMILES)
1,286,COCC(=O)NC1(Cc2nc(-c3cncc([C@@](O)(c4ccc(C(C)C)cc4)C4(C)CN(C)C4)c3)no2)CC1 [Example 462]
2,257,Cc1cc([C@](O)(c2cncc(-c3noc(C(C)(C)O)n3)c2)C2(C)CN(C)C2)ccc1C(C)C [Example 544]
3,141,CC(C)c1ccc([C@](O)(c2cncc(C#CC(C)(O)c3ccn(C)n3)c2)C2(C)CN(C)C2)cc1 (stereo partly drawn) [Example 35]
4,129,"CCC(=O)NC(C)(C)Cc1nc(-c2cncc([C@@](O)(c3ccc(C(C)C)cc3)C3(C)CN(C)C3)c2)no1 [Example 464, N-[2-(3-{5-[(R)-(1,3-Dimethyl-azetidin-3-yl)-hydroxy-(4-isopropyl-phenyl)-methyl]-pyridin-3-yl}-[1,2,4]oxadiazol-5-yl)-1,1-dimethyl-ethyl]-propionamide]"
5,110,"CC(C)c1ccc([C@](O)(c2cncc(-c3noc(CS(C)(=O)=O)n3)c2)C2(C)CN(C)C2)cc1 [Example 103, (R)-(1,3-Dimethyl-azetidin-3-yl)-(4-isopropyl-phenyl)-[5-(5-methanesulfonylmethyl-[1,2,4]oxadiazol-3-yl)-pyridin-3-yl]-methanol]"
6,93.8,"CCN1CC(C)([C@](O)(c2ccc(C(C)C)cc2)c2cncc(-c3noc(CC(C)(C)O)n3)c2)C1 [Example 338, 1-(3-{5-[(R)-(1-Ethyl-3-methyl-azetidin-3-yl)-hydroxy-(4-isopropyl-phenyl)-methyl]-pyridin-3-yl}-[1,2,4]oxadiazol-5-yl)-2-methyl-propan-2-ol]"
7,82.9,CN1CC(C)(C(O)(c2ccc(C3(C)CC3)cc2)c2cncc(N3CCCC3)c2)C1 (stereo not drawn) [Example 160]
8,44.6,CC(C)c1ccc([C@](O)(c2cncc(N3C[C@H](C)O[C@@H](C)C3)c2)C2(C)CN(C)C2)cc1 [Example 228]
9,43.4,COCc1nc(-c2cncc([C@@](O)(c3ccc(C(C)C)cc3)C3(C)CN(C)C3)c2)no1 [Example 105]
10,34.7,"CC(C)c1ccc([C@](O)(c2cncc(CCC3CCN(C(=O)OC(C)(C)C)CC3)c2)C2(C)CN(C)C2)cc1 [Example 414, 4-(2-{5-[(R)-(1,3-Dimethyl-azetidin-3-yl)-hydroxy-(4-isopropyl-phenyl)-methyl]-pyridin-3-yl}-ethyl)-piperidine-1-carboxylic acid tert-butyl ester]"
11,33.3,CC(C)N1CC(C)([C@](O)(c2ccc(OC(F)(F)F)cc2)c2cncc(N3CCCC3)c2)C1 [Example 5]
12,15.8,CN1CC(C)([C@](O)(c2ccc(C3(C(F)(F)F)CC3)cc2)c2cncc(N3CCCC3)c2)C1 [Example 187]
